Source: ChEMBL document CHEMBL6074671, “Discovery of Pyridine-2-Carboxamides Derivatives as Potent and Selective HPK1 Inhibitors for the Treatment of Cancer” (J Med Chem, 2024)

Columns and labels:
[1] = biological target: T1, Mitogen-activated protein kinase kinase kinase kinase 1 (Homo sapiens, UniProt Q92918); assay: Inhibition of human recombinant wild type N-terminal HPK1 (1 to 346 residues) infected in insect Sf21 cells using fluorescein-PKC as substrate preincubated for 10 mins followed by substrate addition and measured after 90 mins by microplate reader based analysis; format: single protein
[2] = biological target: T1, Mitogen-activated protein kinase kinase kinase kinase 1; assay: Inhibition of HPK1 in human PBMC cells assessed as IL-2 level pretreated for 4 hrs followed by anti-CD3/CD28 stimulation for 20 mins by HTRF method; format: cell-based
[3] = Dose normalized AUC (0 to 24 hrs) in Sprague-Dawley rat at 10 mg/kg, po; format: ADME, organism-based; conditions: in vivo
[4] = Half life in Sprague-Dawley rat at 10 mg/kg, po; format: ADME, organism-based; conditions: in vivo
[5] = Half life in Balb/c mouse at 10 mg/kg, po; format: ADME, organism-based; conditions: in vivo
[6] = Oral bioavailability in Balb/c mouse at 10 mg/kg; format: ADME, organism-based; conditions: in vivo
[7] = biological target: Mitogen-activated protein kinase kinase kinase kinase 2 (Homo sapiens, UniProt Q12851); assay: Inhibition of human recombinant full length GST tagged N-terminal MAP4K2 (1 to 820 end residues) expressed in insect Sf21 cells
[8] = biological target: Misshapen-like kinase 1 (Homo sapiens, UniProt Q8N4C8); assay: Inhibition of catalytic domain human GST-tagged N-terminal MAP4K6 (1 to 314 residues) expressed in insect Sf21 cells
[9] = biological target: Tyrosine-protein kinase Fyn (Homo sapiens, UniProt P06241); assay: Inhibition of FYN (unknown origin)
[10] = biological target: Tyrosine-protein kinase Lyn (Homo sapiens, UniProt P07948); assay: Inhibition of LYNa (unknown origin)
[11] = biological target: Interleukin-1 receptor-associated kinase 4 (Homo sapiens, UniProt Q9NWZ3); assay: Inhibition of IRAK4 (unknown origin)
[12] = biological target: Receptor-type tyrosine-protein kinase FLT3 (Homo sapiens, UniProt P36888); assay: Inhibition of FLT3 (unknown origin)
[13] = biological target: Tyrosine-protein kinase JAK1 (Homo sapiens, UniProt P23458); assay: Inhibition of JAK1 (unknown origin)
[14] = biological target: Non-receptor tyrosine-protein kinase TYK2 (Homo sapiens, UniProt P29597); assay: Inhibition of TYK2 (unknown origin)
[15] = biological target: Serine/threonine-protein kinase PAK 1 (Homo sapiens, UniProt Q13153); assay: Inhibition of PAK1 (unknown origin)
[16] = biological target: Serine/threonine-protein kinase PAK 2 (Homo sapiens, UniProt Q13177); assay: Inhibition of PAK2 (unknown origin)
[17] = biological target: Mitogen-activated protein kinase 14 (Homo sapiens, UniProt Q16539); assay: Inhibition of p38 alpha (unknown origin)
[18] = biological target: Serine/threonine-protein kinase PLK4 (Homo sapiens, UniProt O00444); assay: Inhibition of PLK4 (unknown origin)
[19] = biological target: Proto-oncogene tyrosine-protein kinase Src (Homo sapiens, UniProt P12931); assay: Inhibition of SRC (unknown origin)
[20] = biological target: Tyrosine-protein kinase Blk (Homo sapiens, UniProt P51451); assay: Inhibition of BLK (unknown origin)
[21] = test system: CT26; assay: Antitumor activity against mouse CT26 cells implanted in Balb/c mouse model assessed as tumor growth inhibition administered as po dose BID measured after 15 days relative to control; format: functional; conditions: time 15 day
[22] = test system: CT26; assay: Antitumor activity against mouse CT26 cells implanted in Balb/c mouse model assessed as tumor growth inhibition at high dose administered as po BID measured after 15 days relative to control; format: functional; conditions: time 15 day
[23] = Toxicity in Balb/c mouse assessed as effect on body weight loss at 1.5 to 12 mg/kg, po BID measured after 15 days in presence of anti-PD1; format: organism-based; conditions: in vivo, 360 h, dose 1.5-12 mg/kg, time 15 day
[24] = test system: MC-38; assay: Antitumor activity against mouse MC38 cells implanted in C57BL/6 mouse model assessed as tumor growth inhibition at 12 mg/kg, po BID measured after 12 days relative to control; format: functional; conditions: MC-38, 288 h, time 12 day, read-out: TGI
[25] = test system: MC-38; assay: Synergistic antitumor activity against mouse MC38 cells implanted in C57BL/6 mouse model assessed as CDI value at low dose, po BID measured after 12 days in presence of anti-PD-1; format: functional; conditions: time 12 day
[26] = Toxicity in C57BL/6 mouse implanted with mouse MC38 cells assessed as effect on body weight loss at low dose, po BID measured after 12 days; format: organism-based; conditions: in vivo, 288 h, time 12 day
[27] = Toxicity in C57BL/6 mouse implanted with mouse MC38 cells assessed as effect on body weight loss at high dose, po BID measured after 12 days; format: organism-based; conditions: in vivo, 288 h, time 12 day
[28] = Toxicity in C57BL/6 mouse implanted with mouse MC38 cells assessed as effect on body weight loss at low dose, po BID measured after 12 days in presence of anti-PD-1; format: organism-based; conditions: in vivo, 288 h, time 12 day
[29] = Toxicity in C57BL/6 mouse implanted with mouse MC38 cells assessed as increase in survival at high dose, po BID measured after 12 days in presence of anti-PD-1; format: organism-based; conditions: in vivo, 288 h, time 12 day
[30] = Permeability of the compound in human Caco-2 cells measured after 90 mins by UPLC-MS/MS analysis; format: ADME, cell-based; conditions: read-out: permeability
[31] = Plasma protein binding in mouse assessed as unbound fraction at 2 uM incubated for 4 hrs by LC-MS/MS analysis; format: ADME, cell-free
[32] = Plasma protein binding in cynomolgous monkey assessed as unbound fraction at 2 uM incubated for 4 hrs by LC-MS/MS analysis; format: ADME, cell-free, Macaca fascicularis; conditions: cynomolgus monkey
[33] = biological target: Cytochrome P450 2C9 (Homo sapiens, UniProt P11712); assay: Inhibition of CYP2C9 in human liver microsomes using diclofenac 4-hydroxylation as substrate incubated for 10 mins in presence of NADPH by LC-MS/MS analysis; format: ADME, Microsome
[34] = biological target: Cytochrome P450 3A4 (Homo sapiens, UniProt P08684); assay: Inhibition of CYP3A4 in human liver microsomes using midazolam 1-hydroxylation as substrate incubated for 10 mins in presence of NADPH by LC-MS/MS analysis; format: ADME, Microsome
[35] = Genotoxicity in Salmonella typhimurium TA98 incubated for 48 to 72 hrs in presence of S9 fraction by AMES test; format: toxicity, subcellular; conditions: salmonella enterica subsp. enterica serovar typhimurium, time 48-72 hrs
[36] = Genotoxicity in Salmonella typhimurium TA100 incubated for 48 to 72 hrs in presence of S9 fraction by AMES test; format: toxicity, subcellular; conditions: salmonella enterica subsp. enterica serovar typhimurium, time 48-72 hrs
[37] = Genotoxicity in […] WP2 uvrA incubated for 48 to 72 hrs in presence of S9 fraction by AMES test; format: toxicity, subcellular; conditions: time 48-72 hrs
[38] = Inhibition of pSLP76 in human PBMC cells incubated for 4 hrs by HTRF method; format: cell-based
[39] = in vivo; conditions: Balb/c, mouse, iv, 1 mg/kg
Description: Volume of distribution in Balb/c mouse at 1 mg/kg, iv

[40] = in vivo; conditions: Sprague-Dawley, rat, iv, 1 mg/kg
Description: Volume of distribution in Sprague-Dawley rat at 1 mg/kg, iv

[41] = in vivo; conditions: cynomolgus monkey, plasma, iv, 1 mg/kg
Description: Clearance in Cynomolgus monkey plasma at 1 mg/kg, iv

[42] = in vivo; conditions: cynomolgus monkey, iv, 1 mg/kg
Description: Volume of distribution in Cynomolgus monkey at 1 mg/kg, iv

T1 sequence (Q92918 whole entry, the tested form may be a part): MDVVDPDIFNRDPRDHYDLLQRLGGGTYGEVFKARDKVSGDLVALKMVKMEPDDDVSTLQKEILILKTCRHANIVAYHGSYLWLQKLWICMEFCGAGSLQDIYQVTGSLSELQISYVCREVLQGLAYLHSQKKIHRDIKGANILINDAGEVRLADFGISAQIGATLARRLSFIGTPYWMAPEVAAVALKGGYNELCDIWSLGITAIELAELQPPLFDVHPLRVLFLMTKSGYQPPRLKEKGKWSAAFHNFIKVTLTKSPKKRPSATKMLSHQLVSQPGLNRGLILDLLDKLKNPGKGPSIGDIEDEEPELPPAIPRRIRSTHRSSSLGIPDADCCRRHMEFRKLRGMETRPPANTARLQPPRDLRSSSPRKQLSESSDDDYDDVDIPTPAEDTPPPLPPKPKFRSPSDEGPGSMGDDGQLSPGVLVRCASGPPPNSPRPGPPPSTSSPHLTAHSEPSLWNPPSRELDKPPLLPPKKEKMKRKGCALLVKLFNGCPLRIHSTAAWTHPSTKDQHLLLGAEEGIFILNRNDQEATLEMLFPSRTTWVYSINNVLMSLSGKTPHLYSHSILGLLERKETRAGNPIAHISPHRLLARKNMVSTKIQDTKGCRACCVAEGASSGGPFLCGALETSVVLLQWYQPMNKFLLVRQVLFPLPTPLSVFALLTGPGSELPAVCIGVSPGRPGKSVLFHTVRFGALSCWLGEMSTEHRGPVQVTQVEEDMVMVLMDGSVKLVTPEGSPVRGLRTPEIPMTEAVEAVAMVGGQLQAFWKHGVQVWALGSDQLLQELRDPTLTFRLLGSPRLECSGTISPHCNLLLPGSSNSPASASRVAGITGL
Sequence of Misshapen-like kinase 1 (Q8N4C8 whole entry, the tested form may be a part): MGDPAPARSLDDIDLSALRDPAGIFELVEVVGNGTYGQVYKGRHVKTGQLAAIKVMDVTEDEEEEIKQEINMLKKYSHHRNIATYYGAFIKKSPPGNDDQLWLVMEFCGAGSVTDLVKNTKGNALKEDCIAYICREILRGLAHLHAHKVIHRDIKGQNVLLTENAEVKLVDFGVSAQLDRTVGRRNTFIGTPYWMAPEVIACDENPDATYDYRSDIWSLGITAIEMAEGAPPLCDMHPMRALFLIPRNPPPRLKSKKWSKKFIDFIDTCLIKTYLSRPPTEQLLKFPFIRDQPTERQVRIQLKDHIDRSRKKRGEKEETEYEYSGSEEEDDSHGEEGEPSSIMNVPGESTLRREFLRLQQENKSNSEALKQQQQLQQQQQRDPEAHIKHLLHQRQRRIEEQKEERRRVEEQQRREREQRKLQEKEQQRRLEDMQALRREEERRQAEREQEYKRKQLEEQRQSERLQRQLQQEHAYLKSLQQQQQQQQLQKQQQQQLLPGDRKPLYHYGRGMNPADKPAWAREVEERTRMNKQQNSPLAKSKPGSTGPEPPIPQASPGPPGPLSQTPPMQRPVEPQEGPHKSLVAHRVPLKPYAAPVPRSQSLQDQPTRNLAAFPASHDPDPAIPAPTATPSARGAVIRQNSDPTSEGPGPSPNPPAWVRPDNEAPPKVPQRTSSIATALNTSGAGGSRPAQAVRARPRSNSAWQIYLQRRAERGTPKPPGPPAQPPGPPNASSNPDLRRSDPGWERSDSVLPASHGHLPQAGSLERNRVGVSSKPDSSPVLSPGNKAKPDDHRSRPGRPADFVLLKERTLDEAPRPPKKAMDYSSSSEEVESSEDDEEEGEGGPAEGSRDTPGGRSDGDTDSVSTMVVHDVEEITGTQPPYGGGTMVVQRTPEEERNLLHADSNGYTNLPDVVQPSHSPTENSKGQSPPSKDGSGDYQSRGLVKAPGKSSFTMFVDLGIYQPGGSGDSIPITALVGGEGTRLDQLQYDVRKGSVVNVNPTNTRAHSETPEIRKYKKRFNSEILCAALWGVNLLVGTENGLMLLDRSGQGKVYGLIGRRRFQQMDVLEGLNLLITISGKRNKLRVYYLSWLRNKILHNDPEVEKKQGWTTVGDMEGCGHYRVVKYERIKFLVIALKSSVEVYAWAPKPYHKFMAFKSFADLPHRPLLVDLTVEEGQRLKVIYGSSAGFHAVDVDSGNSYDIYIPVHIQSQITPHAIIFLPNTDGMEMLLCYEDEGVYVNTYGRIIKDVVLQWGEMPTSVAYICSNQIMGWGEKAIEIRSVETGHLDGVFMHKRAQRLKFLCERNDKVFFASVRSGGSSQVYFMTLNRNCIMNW
Sequence of Cytochrome P450 3A4 (P08684 whole entry): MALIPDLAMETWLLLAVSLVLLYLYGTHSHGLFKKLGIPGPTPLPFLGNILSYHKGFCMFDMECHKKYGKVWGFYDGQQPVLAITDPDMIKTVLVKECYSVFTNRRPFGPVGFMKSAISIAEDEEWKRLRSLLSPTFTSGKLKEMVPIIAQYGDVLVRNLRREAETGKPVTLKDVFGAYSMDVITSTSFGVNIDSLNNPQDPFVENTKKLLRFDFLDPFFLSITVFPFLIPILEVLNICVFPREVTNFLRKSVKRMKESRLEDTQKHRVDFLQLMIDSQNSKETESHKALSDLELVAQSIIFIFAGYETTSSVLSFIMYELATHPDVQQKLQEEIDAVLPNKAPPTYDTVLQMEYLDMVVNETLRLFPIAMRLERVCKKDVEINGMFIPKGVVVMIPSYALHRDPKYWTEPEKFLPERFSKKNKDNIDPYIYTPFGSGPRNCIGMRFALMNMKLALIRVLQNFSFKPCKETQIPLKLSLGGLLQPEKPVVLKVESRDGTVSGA
Sequence of Tyrosine-protein kinase Fyn (P06241 whole entry): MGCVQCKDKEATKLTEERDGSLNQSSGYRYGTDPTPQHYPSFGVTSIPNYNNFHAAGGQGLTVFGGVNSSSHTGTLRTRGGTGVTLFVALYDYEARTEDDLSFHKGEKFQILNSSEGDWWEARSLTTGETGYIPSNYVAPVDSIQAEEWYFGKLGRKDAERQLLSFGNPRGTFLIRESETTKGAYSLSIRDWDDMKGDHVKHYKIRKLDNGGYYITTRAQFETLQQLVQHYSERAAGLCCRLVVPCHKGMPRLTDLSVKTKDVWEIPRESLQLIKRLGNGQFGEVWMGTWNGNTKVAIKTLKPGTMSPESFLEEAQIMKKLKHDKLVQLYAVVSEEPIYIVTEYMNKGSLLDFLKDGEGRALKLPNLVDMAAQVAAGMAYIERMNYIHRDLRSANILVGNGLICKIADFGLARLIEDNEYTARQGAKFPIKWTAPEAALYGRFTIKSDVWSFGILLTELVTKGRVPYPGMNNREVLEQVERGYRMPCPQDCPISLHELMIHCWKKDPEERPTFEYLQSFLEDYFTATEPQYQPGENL
Sequence of Tyrosine-protein kinase JAK1 (P23458 whole entry): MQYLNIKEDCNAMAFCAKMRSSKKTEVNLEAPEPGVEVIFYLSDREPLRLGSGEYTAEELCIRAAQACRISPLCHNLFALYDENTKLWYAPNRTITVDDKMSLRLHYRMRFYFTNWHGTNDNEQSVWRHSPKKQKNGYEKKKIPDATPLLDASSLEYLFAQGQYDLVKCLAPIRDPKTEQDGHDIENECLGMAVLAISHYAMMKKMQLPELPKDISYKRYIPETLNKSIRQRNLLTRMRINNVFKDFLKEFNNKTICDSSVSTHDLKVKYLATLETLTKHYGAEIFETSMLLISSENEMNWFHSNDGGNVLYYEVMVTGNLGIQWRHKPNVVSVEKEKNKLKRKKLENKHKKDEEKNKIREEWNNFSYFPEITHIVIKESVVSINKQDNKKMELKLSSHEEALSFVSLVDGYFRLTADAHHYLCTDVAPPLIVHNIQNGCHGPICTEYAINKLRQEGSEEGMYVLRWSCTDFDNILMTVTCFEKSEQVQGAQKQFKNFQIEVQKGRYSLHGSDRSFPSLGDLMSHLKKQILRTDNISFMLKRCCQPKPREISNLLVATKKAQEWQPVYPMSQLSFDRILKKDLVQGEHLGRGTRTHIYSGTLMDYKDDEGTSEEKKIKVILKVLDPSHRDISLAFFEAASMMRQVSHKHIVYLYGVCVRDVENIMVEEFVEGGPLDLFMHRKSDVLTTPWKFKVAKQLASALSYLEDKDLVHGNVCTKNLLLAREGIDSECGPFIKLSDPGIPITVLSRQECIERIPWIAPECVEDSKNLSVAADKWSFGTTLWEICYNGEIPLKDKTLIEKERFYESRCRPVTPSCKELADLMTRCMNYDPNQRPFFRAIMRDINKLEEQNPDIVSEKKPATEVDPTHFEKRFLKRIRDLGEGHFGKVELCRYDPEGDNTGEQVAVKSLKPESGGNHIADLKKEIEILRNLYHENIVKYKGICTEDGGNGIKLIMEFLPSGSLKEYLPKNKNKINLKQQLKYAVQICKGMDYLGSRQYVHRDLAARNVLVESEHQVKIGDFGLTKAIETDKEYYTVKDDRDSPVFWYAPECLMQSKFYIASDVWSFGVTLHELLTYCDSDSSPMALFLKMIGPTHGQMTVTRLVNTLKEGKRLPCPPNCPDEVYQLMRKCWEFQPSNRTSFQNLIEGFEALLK
Sequence of Serine/threonine-protein kinase PAK 2 (Q13177 whole entry): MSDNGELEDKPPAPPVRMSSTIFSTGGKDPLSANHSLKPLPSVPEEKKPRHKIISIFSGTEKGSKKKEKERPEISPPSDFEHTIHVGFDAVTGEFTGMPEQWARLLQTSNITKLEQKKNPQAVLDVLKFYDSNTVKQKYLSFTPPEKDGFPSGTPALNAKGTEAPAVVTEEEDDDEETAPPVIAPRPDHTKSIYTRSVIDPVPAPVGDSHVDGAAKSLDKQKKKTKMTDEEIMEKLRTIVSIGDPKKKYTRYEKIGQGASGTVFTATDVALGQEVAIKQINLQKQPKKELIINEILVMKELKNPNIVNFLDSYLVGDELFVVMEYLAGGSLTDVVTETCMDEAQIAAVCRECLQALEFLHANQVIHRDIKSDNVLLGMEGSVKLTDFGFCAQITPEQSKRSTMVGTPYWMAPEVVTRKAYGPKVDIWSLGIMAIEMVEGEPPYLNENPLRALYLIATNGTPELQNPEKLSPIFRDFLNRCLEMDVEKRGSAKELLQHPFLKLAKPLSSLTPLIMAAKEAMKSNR

For `COc1cc(Nc2ccc3c(n2)CN(C)C32CCN(C3COC3)CC2)c(C(N)=O)nc1-c1cccc2c1ncn2C`, the IC50 [1] was less than 0.51 nM, the EC50 [2] was 43.3 nM and the AUC/dose [3] was 593.6 ng·h/mL. For the same compound, the half-life [4] was 3.42 h, the half-life [5] was 1.45 h and the bioavailability [6] was 62.5%. It also gave an IC50 [7] of 1740 nM, an IC50 [8] of 116 nM and an IC50 [9] greater than 10000 nM. For the same compound, the IC50 [10] was 5140 nM, the IC50 [11] was 3500 nM and the IC50 [12] was 317 nM. The IC50 [13] was greater than 10000 nM, the IC50 [14] was greater than 10000 nM and the IC50 [15] was greater than 10000 nM. It also gave an IC50 [16] greater than 10000 nM, an IC50 [17] greater than 10000 nM and an IC50 [18] greater than 10000 nM. For the same compound, the IC50 [19] was 2110 nM, the IC50 [20] was 1890 nM and the TGI [21] was 64.3%. The TGI [22] was 94.3%, the Activity [23] was “Non-toxic” and the inhibition in vivo at 12 mg/kg [24] was 59.4%. For the same compound, the Activity [25] was 0.78, the Activity [26] was “Non-toxic” and the Activity [27] was “Non-toxic”. For the same compound, the Activity [28] was “Non-toxic”, the Activity [29] was “Non-toxic” and the Papp at […] [30] was 4.2 ×10⁻⁶ cm/s. The fraction unbound at 4 h, 2 µM [31] was 0.079, the fraction unbound at 4 h, 2 µM [32] was 0.153 and the IC50 [33] was greater than 50000 nM. For the same compound, the IC50 [34] was greater than 50000 nM, the Activity [35] was “Non-toxic” and the Activity [36] was “Non-toxic”. The Activity [37] was “Non-toxic”, the IC50 [38] was 19.9 nM and the Vd [39] was 2.13 L/kg. For the same compound, the Vd [40] was 2.2 L/kg, the clearance [41] was 11.4 mL/min/kg and the Vd [42] was 5.07 L/kg.
